How the values were obtained:
Assay type in all cases: cell-based
[1] = tested on: E. coli DH5α; test: Antibacterial activity: MIC and growth curve against E. coli DH5α in 96-well plate; conditions: minimal inhibitory concentration against E. coli DH5α; 96-well plate, 5×10^5 CFU/mL, 37° C., judged after 8 h
Method in brief: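 Log-phase bacteria (OD600 ~0.5) resuspended in LB at 5×10^5 CFU/mL, exposed to recombinant protein at 50, 25, 12.5 μg/mL final in triplicate, 37 °C shaking at 175 rpm. OD600 read every 30 min; MIC is lowest concentration showing no growth.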

[2] = tested on: E. coli BL21; test: MIC against Gram-negative bacteria: E. coli BL21; conditions: 5×10^5 CFU/mL
Method in brief: (§1)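 Purified recombinant human EGF domain proteins are tested by broth dilution in LB against a 5×10^5 CFU/mL inoculum, with two-fold serial dilutions run in triplicate. Plates are incubated at 37° C with shaking, and the MIC is read as the lowest protein concentration without growth.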

[3] = tested on: Pseudomonas aeruginosa; test: MIC against Gram-negative bacteria: Pseudomonas aeruginosa; conditions: 5×10^5 CFU/mL; for MIC against P. aeruginosa: Pseudomonas aeruginosa
Method in brief: as §1

[4] = tested on: Klebsiella pneumonia; test: MIC against Gram-negative bacteria: Klebsiella pneumonia; conditions: 5×10^5 CFU/mL; for MIC against K. pneumonia: Klebsiella pneumonia
Method in brief: as §1

[5] = tested on: Enterobacter cloacae; test: MIC against Gram-negative bacteria: Enterobacter cloacae; conditions: 5×10^5 CFU/mL; for MIC against E. cloacae: Enterobacter cloacae
Method in brief: as §1

[6] = tested on: Aeromonas hydrophila; test: MIC against Gram-negative bacteria: Aeromonas hydrophila; conditions: 5×10^5 CFU/mL; for MIC against A. hydrophila: Aeromonas hydrophila
Method in brief: as §1

[7] = tested on: Citrobacter diversus; test: MIC against Gram-negative bacteria: Citrobacter diversus; conditions: 5×10^5 CFU/mL; for MIC against C. diversus: Citrobacter diversus
Method in brief: as §1

[8] = tested on: Moraxella catarrhalis; test: MIC against Gram-negative bacteria: Moraxella catarrhalis; conditions: 5×10^5 CFU/mL; for MIC against M. catarrhalis: Moraxella catarrhalis
Method in brief: as §1

[9] = tested on: Proteus mirabilis; test: MIC against Gram-negative bacteria: Proteus mirabilis; conditions: 5×10^5 CFU/mL; for MIC against P. mirabilis: Proteus mirabilis
Method in brief: as §1

[10] = tested on: Proteus vulgaris; test: MIC against Gram-negative bacteria: Proteus vulgaris; conditions: 5×10^5 CFU/mL; for MIC against P. vulgaris: Proteus vulgaris
Method in brief: as §1

[11] = tested on: Serratia marcescens; test: MIC against Gram-negative bacteria: Serratia marcescens; conditions: 5×10^5 CFU/mL; for MIC against S. marcescens: Serratia marcescens
Method in brief: as §1

[12] = 10 h cultivation at 37° C., two-fold serial dilution

PRT1434 (DVDECKYHPCYPGVHCINLSPGFRCDACPVGFTGPMVQ; listed as Homo sapiens)
MIC [1]: 25 µg/mL
MIC against E. coli BL21 ([2]; 10 h cultivation at 37° C.): 12.5 µg/mL
MIC against P. aeruginosa ([3]; 10 h cultivation at 37° C.): 25 µg/mL
MIC against K. pneumonia ([4]; 10 h cultivation at 37° C.): 100 µg/mL
MIC against E. cloacae ([5]; 10 h cultivation at 37° C.): 25 µg/mL
MIC against A. hydrophila ([6]; 10 h cultivation at 37° C.): 12.5 µg/mL
MIC against C. diversus ([7]; 10 h cultivation at 37° C.): 25 µg/mL
MIC against M. catarrhalis ([8]; 10 h cultivation at 37° C.): 12.5 µg/mL
MIC against P. mirabilis ([9]; 10 h cultivation at 37° C.): 25 µg/mL
MIC against P. vulgaris ([10]; 10 h cultivation at 37° C.): 12.5 µg/mL
MIC against S. marcescens ([11]; 10 h cultivation at 37° C.): 12.5 µg/mL

PRT1475 (DINECKDPSNINGGCSQICDNTPGSYHCSCKNGFVMLSNKKDCK; listed as Homo sapiens)
MIC [1]: 25 µg/mL
MIC against E. coli BL21 ([2]; 10 h cultivation at 37° C.): 12.5 µg/mL
MIC against P. aeruginosa ([3]; 10 h cultivation at 37° C.): 12.5 µg/mL
MIC against K. pneumonia ([4]; 10 h cultivation at 37° C.): 12.5 µg/mL
MIC against E. cloacae ([5]; 10 h cultivation at 37° C.): 25 µg/mL
MIC against A. hydrophila ([6]; 10 h cultivation at 37° C.): 12.5 µg/mL
MIC against C. diversus ([7]; 10 h cultivation at 37° C.): 25 µg/mL
MIC against M. catarrhalis ([8]; 10 h cultivation at 37° C.): 12.5 µg/mL
MIC against P. mirabilis ([9]; 10 h cultivation at 37° C.): 25 µg/mL
MIC against P. vulgaris ([10]; 10 h cultivation at 37° C.): 12.5 µg/mL
MIC against S. marcescens ([11]; 10 h cultivation at 37° C.): 12.5 µg/mL

PRT673 (DVDECLDESNCRNGVCENTRGGYRCACTPPAEYSPAQRQCL; listed as Homo sapiens)
MIC [1]: 50 µg/mL
MIC E. coli BL21 ([2]; 96-well plate, 37° C., 10 h): 12.5 µg/mL
MIC P. aeruginosa ([3]; 96-well plate, 37° C., 10 h): 50 µg/mL
MIC K. pneumonia ([4]; 96-well plate, 37° C., 10 h): 50 µg/mL
MIC E. cloacae ([5]; 96-well plate, 37° C., 10 h): 25 µg/mL
MIC A. hydrophila ([6]; 96-well plate, 37° C., 10 h): 50 µg/mL
MIC C. diversus ([7]; 96-well plate, 37° C., 10 h): 25 µg/mL
MIC M. catarrhalis ([8]; 96-well plate, 37° C., 10 h): 25 µg/mL
MIC P. mirabilis ([9]; 96-well plate, 37° C., 10 h): 50 µg/mL
MIC P. vulgaris ([10]; 96-well plate, 37° C., 10 h): 12.5 µg/mL
MIC S. marcescens ([11]; 96-well plate, 37° C., 10 h): 50 µg/mL

PRT1123 (QLTGCQGHTCPLAATCIPIFESGVHSYVCHCPPGTHGPFCG; listed as Homo sapiens)
MIC [1]: 25 µg/mL
MIC E. coli BL21 [2, 12]: 50 µg/mL
MIC P. aeruginosa [3, 12]: 25 µg/mL
MIC K. pneumonia [4, 12]: 12.5 µg/mL
MIC E. cloacae [5, 12]: 25 µg/mL
MIC A. hydrophila [6, 12]: 50 µg/mL
MIC C. diversus [7, 12]: 12.5 µg/mL
MIC M. catarrhalis [8, 12]: 25 µg/mL
MIC P. mirabilis [9, 12]: 50 µg/mL
MIC P. vulgaris [10, 12]: 25 µg/mL
MIC S. marcescens [11, 12]: 12.5 µg/mL

PRT1334 (PINPCLRKICHPHAHCTYLGPNRHSCTCQEGYRGDGQVCL; listed as Homo sapiens)
MIC [1]: 12.5 µg/mL
MIC against E. coli BL21 ([2]; 96-well plate, 37° C., 10 h): 12.5 µg/mL
MIC against P. aeruginosa ([3]; 96-well plate, 37° C., 10 h): 50 µg/mL
MIC against K. pneumonia ([4]; 96-well plate, 37° C., 10 h): 12.5 µg/mL
MIC against E. cloacae ([5]; 96-well plate, 37° C., 10 h): 50 µg/mL
MIC against A. hydrophila ([6]; 96-well plate, 37° C., 10 h): 12.5 µg/mL
MIC against C. diversus ([7]; 96-well plate, 37° C., 10 h): 50 µg/mL
MIC against M. catarrhalis ([8]; 96-well plate, 37° C., 10 h): 25 µg/mL
MIC against P. mirabilis ([9]; 96-well plate, 37° C., 10 h): 100 µg/mL
MIC against P. vulgaris ([10]; 96-well plate, 37° C., 10 h): 25 µg/mL
MIC against S. marcescens ([11]; 96-well plate, 37° C., 10 h): 25 µg/mL

PRT1100 (DIDECASDPCVNGGLCQDLLNKFQCLCDVAFAGERCE; listed as Homo sapiens)
MIC [1]: 12.5 µg/mL
MIC E. coli BL21 [2, 12]: 25 µg/mL
MIC P. aeruginosa [3, 12]: 100 µg/mL
MIC K. pneumonia [4, 12]: 25 µg/mL
MIC E. cloacae [5, 12]: 12.5 µg/mL
MIC A. hydrophila [6, 12]: 100 µg/mL
MIC C. diversus [7, 12]: 12.5 µg/mL
MIC M. catarrhalis [8, 12]: 12.5 µg/mL
MIC P. mirabilis [9, 12]: 12.5 µg/mL
MIC P. vulgaris [10, 12]: 25 µg/mL
MIC S. marcescens [11, 12]: 12.5 µg/mL

PRT1180 (DIDYCEPNPCQNGAQCYNRASDYFCKCPEDYEGKNCS; listed as Homo sapiens)
MIC [1]: 50 µg/mL
MIC E. coli BL21 [2, 12]: 12.5 µg/mL
MIC P. aeruginosa [3, 12]: 50 µg/mL
MIC K. pneumonia [4, 12]: 25 µg/mL
MIC E. cloacae [5, 12]: 12.5 µg/mL
MIC A. hydrophila [6, 12]: 50 µg/mL
MIC C. diversus [7, 12]: 25 µg/mL
MIC M. catarrhalis [8, 12]: 12.5 µg/mL
MIC P. mirabilis [9, 12]: 25 µg/mL
MIC P. vulgaris [10, 12]: 50 µg/mL
MIC S. marcescens [11, 12]: 25 µg/mL

Source: US9833497B2, “Human originated EGF domain proteins and use of the same” (CHENGDU SOURCEBIO LIMITED-LIABILITY COMPANY, priority 2013, dated 2017)
